Data as given in PubChem BioAssay (NCI).
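Results reflect a 48-hour exposure of cells in 96-well plates to compound at five concentrations. TGI: total growth inhibition.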

Assays:
Assay in all cases: growth of human tumour cells (NCI), 48 h
[1] = tested on: 786-0 renal
[2] = tested on: A498 renal
[3] = tested on: A549 NSCLC
[4] = tested on: ACHN renal
[5] = tested on: BT-549 breast
[6] = tested on: CAKI-1 renal
[7] = tested on: CCRF-CEM leukemia
[8] = tested on: COLO 205 colon
[9] = tested on: DU-145 prostate
[10] = tested on: EKVX NSCLC
[11] = tested on: HCC-2998 colon
[12] = tested on: HCT-116 colon
[13] = tested on: HCT-15 colon
[14] = tested on: HL-60(TB) leukemia
[15] = tested on: HOP-62 NSCLC
[16] = tested on: HOP-92 NSCLC
[17] = tested on: HS 578T breast
[18] = tested on: HT29 colon
[19] = tested on: IGROV1 ovarian
[20] = tested on: K-562 leukemia
[21] = tested on: KM12 colon
[22] = tested on: LOX IMVI melanoma
[23] = tested on: M14 melanoma
[24] = tested on: MCF7 breast
[25] = tested on: MDA-MB-231 breast
[26] = tested on: MDA-MB-435
[27] = tested on: MDA-N
[28] = tested on: MOLT-4 leukemia
[29] = tested on: NCI-H226 lung
[30] = tested on: NCI-H23 lung
[31] = tested on: NCI-H460 lung
[32] = tested on: NCI-H522 lung
[33] = tested on: NCI/ADR-RES ovarian
[34] = tested on: OVCAR-3 ovarian
[35] = tested on: OVCAR-4 ovarian
[36] = tested on: OVCAR-5 ovarian
[37] = tested on: OVCAR-8 ovarian
[38] = tested on: PC-3 prostate
[39] = tested on: RPMI-8226 leukemia
[40] = tested on: RXF 393 renal
[41] = tested on: SF-268 CNS
[42] = tested on: SF-295 CNS
[43] = tested on: SF-539 CNS
[44] = tested on: SK-MEL-2 melanoma
[45] = tested on: SK-MEL-28 melanoma
[46] = tested on: SK-MEL-5 melanoma
[47] = tested on: SK-OV-3 ovarian
[48] = tested on: SN12C renal
[49] = tested on: SNB-19 CNS
[50] = tested on: SNB-75 CNS
[51] = tested on: SR leukemia
[52] = tested on: SW-620 colon
[53] = tested on: T-47D breast
[54] = tested on: TK-10 renal
[55] = tested on: U251 CNS
[56] = tested on: UACC-257 melanoma
[57] = tested on: UACC-62 melanoma
[58] = tested on: UO-31 renal
[59] = tested on: DLD-1 colon
[60] = tested on: DMS 114 small cell lung
[61] = tested on: DMS 273 small cell lung
[62] = tested on: HOP-18 NSCLC
[63] = tested on: KM20L2 colon
[64] = tested on: M19-MEL melanoma
[65] = tested on: MALME-3M melanoma
[66] = tested on: SNB-78 CNS
[67] = tested on: LXFL 529 NSCLC

Measured: TGI

O=C1C(=O)c2ccccc2C=C1[N+](=O)[O-]
80.1 µM: [57]
86.1 µM: [7]
39.2 µM: [27]
99.5 µM: [44]
54.2 µM: [14]
66.5 µM: [25]
69.9 µM: [12]
78.9 µM: [24] | [40]
65.4 µM: [28]
46.4 µM: [46]
58.9 µM: [56]
31.8 µM: [26]
76.4 µM: [33]
56.8 µM: [10]
85.2 µM: [34]
not listed: [59] | [60] | [61] | [62] | [63] | [64] | [65] | [66] | [67]
> 100 µM: all other assays above

COc1ccc(C2Cc3cc(OC)c(OC)c(OC)c3C2=O)cc1 (stereo unspecified)
not listed: [5] | [9] | [14] | [16] | [17] | [24] | [25] | [26] | [27] | [32] | [33] | [38] | [40] | [51] | [53] | [67]
> 100 µM: all other assays above

COC(=N)C(C)C
not listed: [1] | [2] | [5] | [9] | [10] | [17] | [24] | [25] | [26] | [27] | [33] | [37] | [38] | [44] | [53] | [62]
> 100 µM: all other assays above

CCOC(=O)[C@H](Cc1ccccc1)NC(=O)c1nc[nH]c1[N+](=O)[O-]
not listed: [5] | [9] | [16] | [17] | [24] | [25] | [26] | [27] | [33] | [36] | [38] | [40] | [53] | [62] | [63] | [66]
> 100 µM: all other assays above
